Experimental data published in patent publication US8586505B2 (SDS Biotech K. K., priority 2009, dated 2013).

Assays:
Type in all cases: in vivo
[1] = tested on: Phytophthora infestans; assay: whole plant or invertebrate; conditions: in Solanum lycopersicum, 96 h, read-out: Determination of control effect (preventive value)
[2] = tested on: Pseudoperonospora cubensis; assay: Test of examining control effect on Pseudoperonospora cubensis (potted cucumber plants); conditions: 96 h, 10% wettable powder adjusted to 125 ppm, 15 ml/pot sprayed on potted cucumber plants one day before spray inoculation, assessed after 1 day wet chamber and 3 days greenhouse, read-out: Determination of control effect (preventive value) on Pseudoperonospora cubensis
Method: (§1) Calculation of Preventive Value: Preventive value={(untreated lesion area rate−treated lesion area rate)/untreated lesion area rate}×100
(§2) Using the thus calculated preventive value, the control effect of each compound was determined in accordance with the following standards.
(§3) High control effect: 100%≧preventive value≧60%
(§4) Low control effect: 60%>preventive value≧0%
Using a spray gun, an agent solution prepared by adjusting a 10% wettable powder of each sample compound to 125 ppm (hereinafter referred to as a “sample agent solution”) was sprayed to potted cucumber plants (variety: Sagamihanjiro, 2.5 leave stage) in a concentration of 15 ml/pot. One day after the spraying, a conidial suspension of Pseudoperonospora cubensis (conidial concentration: 1.0×10^4 cells/ml) was applied to the plants by spray inoculation. After completion of the inoculation, the plants were left at 21° C. under wet chamber conditions for 1 day, and were then left in a greenhouse for 3 days, so that they were fully infected with the aforementioned disease. Thereafter, the disease level on each leaf was compared with that on an untreated leaf, and the control effect of each compound was determined in the same manner as in Example 3(1).

[3] = tested on: Sphaerotheca fuliginea; assay: Test of examining control effect on Sphaerotheca fuliginea (potted cucumber plants); conditions: Podosphaera fuliginea, 336 h; 10% wettable powder adjusted to 125 ppm, 15 ml/pot sprayed on potted cucumber plants one day before spray inoculation; assessed after 14 days in greenhouse; read-out: Determination of control effect (preventive value) on Sphaerotheca fuliginea
Method: as §1, §2, §3, §4
Using a spray gun, an agent solution prepared by adjusting a 10% wettable powder of each sample compound to 125 ppm (hereinafter referred to as a “sample agent solution”) was sprayed to potted cucumber plants (variety: Sagamihanjiro, 2nd leave stage) in a concentration of 15 ml/pot. One day after the spraying, a conidial suspension of Sphaerotheca fuliginea (conidial concentration: 1.0×10^5 cells/ml) was applied to the plants by spray inoculation. The plants were left in a greenhouse for 14 days, so that they were fully infected with the aforementioned disease. Thereafter, the disease level on each leaf was compared with that on an untreated leaf, and the control effect of each compound was determined in the same manner as in Example 3(1).

SMILES: N#Cc1ccc(C#CCCNc2ncnc3sccc23)cc1 [compound 37]
- pest or weed control at 125 ppm [1]: 60 to 100%
- pest or weed control at 125 µg/mL [2]: 60 to 100%

SMILES: OCc1ccccc1C#CCCNc1ncnc2sccc12 [compound 44]
- pest or weed control at 125 ppm [1]: 60 to 100%
- pest or weed control at 125 µg/mL [2]: 60 to 100%

SMILES: COCc1ccccc1C#CCCNc1ncnc2sccc12 [compound 45]
- pest or weed control at 125 ppm [1]: 60 to 100%
- pest or weed control at 125 µg/mL [2]: 60 to 100%

SMILES: CCOCc1ccccc1C#CCCNc1ncnc2sccc12 [compound 46]
- pest or weed control at 125 ppm [1]: 60 to 100%
- pest or weed control at 125 µg/mL [2]: 60 to 100%

SMILES: FCc1ccccc1C#CCCNc1ncnc2sccc12 [compound 47]
- pest or weed control at 125 ppm [1]: 60 to 100%
- pest or weed control at 125 µg/mL [2]: 60 to 100%

SMILES: O=Cc1ccccc1C#CCCNc1ncnc2sccc12 [compound 48]
- pest or weed control at 125 ppm [1]: 60 to 100%
- pest or weed control at 125 µg/mL [2]: 60 to 100%

SMILES: COCc1ccccc1C#CCCNc1ncnc2ccsc12 [compound 49]
- pest or weed control at 125 ppm [1]: 60 to 100%
- pest or weed control at 125 µg/mL [2]: 60 to 100%

SMILES: COCc1ccccc1C#CCCNc1ncnc2c(C)csc12 [compound 50]
- pest or weed control at 125 ppm [1]: 60 to 100%
- pest or weed control at 125 µg/mL [2]: 60 to 100%

SMILES: COCc1ccccc1C#CCCNc1ncnc2scc(C)c12 [compound 51]
- pest or weed control at 125 ppm [1]: 60 to 100%
- pest or weed control at 125 µg/mL [2]: 60 to 100%

SMILES: C(#Cc1ccoc1)CCNc1ncnc2sccc12 [compound 52]
- pest or weed control at 125 ppm [1]: 0 to 60%
- pest or weed control at 125 µg/mL [2]: 60 to 100%

SMILES: C(#Cc1cccs1)CCNc1ncnc2sccc12 [compound 53]
- pest or weed control at 125 ppm [1]: 0 to 60%
- pest or weed control at 125 µg/mL [2]: 60 to 100%

SMILES: C(#Cc1ccsc1)CCNc1ncnc2sccc12 [compound 54]
- pest or weed control at 125 ppm [1]: 0 to 60%
- pest or weed control at 125 µg/mL [2]: 60 to 100%

SMILES: C(#Cc1ccccn1)CCNc1ncnc2sccc12 [compound 55]
- pest or weed control at 125 ppm [1]: 60 to 100%
- pest or weed control at 125 µg/mL [2]: 60 to 100%

SMILES: C(#Cc1ncccn1)CCNc1ncnc2sccc12 [compound 58]
- pest or weed control at 125 ppm [1]: 60 to 100%
- pest or weed control at 125 µg/mL [2]: 60 to 100%
- pest or weed control at 125 µg/mL [3]: 0 to 60%

SMILES: COc1cc(OC)nc(C#CCCNc2ncnc3sccc23)n1 [compound 60]
- pest or weed control at 125 ppm [1]: 60 to 100%
- pest or weed control at 125 µg/mL [2]: 60 to 100%
- pest or weed control at 125 µg/mL [3]: 0 to 60%

SMILES: Brc1csc(C#CCCNc2ncnc3sccc23)n1 [compound 64]
- pest or weed control at 125 ppm [1]: 0 to 60%
- pest or weed control at 125 µg/mL [2]: 60 to 100%
- pest or weed control at 125 µg/mL [3]: 0 to 60%

SMILES: COc1nc(C#CCCNc2ncnc3sccc23)cs1 [compound 67]
- pest or weed control at 125 ppm [1]: 60 to 100%
- pest or weed control at 125 µg/mL [2]: 60 to 100%
- pest or weed control at 125 µg/mL [3]: 60 to 100%

SMILES: FCc1nc(C#CCCNc2ncnc3sccc23)cs1 [compound 68]
- pest or weed control at 125 ppm [1]: 60 to 100%
- pest or weed control at 125 µg/mL [2]: 60 to 100%
- pest or weed control at 125 µg/mL [3]: 60 to 100%

SMILES: O=Cc1nc(C#CCCNc2ncnc3sccc23)cs1 [compound 69]
- pest or weed control at 125 ppm [1]: 60 to 100%
- pest or weed control at 125 µg/mL [2]: 60 to 100%
- pest or weed control at 125 µg/mL [3]: 0 to 60%

SMILES: CC(=O)Nc1ccccc1C#CCCNc1ncnc2ccccc12 [compound 160]
- pest or weed control at 125 ppm [1]: 0 to 60%
- pest or weed control at 125 µg/mL [2]: 0 to 60%

SMILES: Cc1ccc(C#CCC(C)Nc2ncnc3sccc23)c(Cl)c1 (stereo not shown) [compound 255]
- pest or weed control at 125 ppm [1]: 60 to 100%
- pest or weed control at 125 µg/mL [3]: 60 to 100%

SMILES: CC(CC#Cc1c(Cl)cc(F)cc1Cl)Nc1ncnc2sccc12 (stereo not shown) [compound 261]
- pest or weed control at 125 µg/mL [2]: 60 to 100%
- pest or weed control at 125 µg/mL [3]: 60 to 100%

SMILES: Cc1cc(C)c(C#CCC(C)Nc2ncnc3sccc23)c(C)c1 (stereo not shown) [compound 263]
- pest or weed control at 125 µg/mL [2]: 60 to 100%
- pest or weed control at 125 µg/mL [3]: 60 to 100%
